Paper PMC10150354, “Linearization of the Brevicidine and Laterocidine Lipopeptides Yields Analogues That Retain Full Antibacterial Activity” (Journal of Medicinal Chemistry, 2023)
Values after ≈ are worked out from the molar mass of the structure shown. Where a SMILES comes first, the peptide text is derived from it. Bridges are numbered along the chain shown (N, C = ends). [ ]: non-standard residue; d: D form. The star is where a group is joined. ξ: configuration not given here. Octanoyl(7-Me) = CC(C)CCCCCC(=O)*; Hexanoyl(4ξ-Me) = CCC(C)CCC(=O)*; dOrn = NCCC[C@@H](N)C(=O)O; Orn = NCCC[C@H](N)C(=O)O

Tests used:
[1] = tested on: S. aureus USA300; format: cell-based, Staphylococcus aureus; conditions: microbroth dilution per CLSI, MHB, 18 h at 37 °C, visual inspection, three technical replicates
Description: (§1) Linear laterocidine (LL-OH, 4) and linear brevicidine (LB-OH, 5) were first synthesized by Fmoc SPPS, starting from 2-chlorotrityl (2-CT) chloride resin. The antibacterial activity of these peptides was then compared to brevicidine (1) and laterocidine (2) using minimum inhibitory concentration (MIC)/microbroth dilution assays (Table 1). The MICs of all peptides were determined against a panel of Gram-negative and Gram-positive ESKAPE pathogens. Additionally, a strain of E. coli carrying the mcr-1 gene was included in the panel. The mcr-1 gene is a transferrable plasmid that confers resistance against colistin, a last-resort antibiotic for Gram-negative infections, by reducing the overall negative charge of lipopolysaccharide (LPS) through modification of lipid A with phosphoethanolamine. The propensity for cationic antibiotics to bind to the cell membrane is therefore reduced. This gene has been observed in more than 27 bacterial species over six continents.[26] The spread of the mcr-1 gene could render colistin ineffectual; therefore, novel antibacterials are urgently required to overcome this form of resistance.
(§2) All minimum inhibitory concentrations (MICs) were determined according to Clinical and Laboratory Standards Institute (CLSI) guidelines. Blood agar plates were inoculated with glycerol stocks of E. coli ATCC 25922, K. pneumoniae ATCC 13883, A. baumannii ATCC 17961, P. aeruginosa PAO1, and S. aureus USA300. The inoculated agar plates were then incubated for 16 h at 37 °C. Individually grown colonies were subsequently used to inoculate 5 mL aliquots of TSB that were then incubated at 37 °C with shaking at 220 rpm. E. coli 25922 MCR-1 glycerol stock was used to inoculate 5 mL of TSB supplemented with kanamycin that was then incubated for 16 h at 37 °C with shaking at 220 rpm. The next day the culture was diluted 100-fold in TSB supplemented with kanamycin and incubated at 37 °C with shaking at 220 rpm. In parallel, the lipopeptide antibiotics DMSO stocks to be assessed were serially diluted with MHB in polypropylene 96-well plates (50 μL in each well). Colistin sulfate stocks were dissolved in water before being diluted with MHB. Aliquots of the inoculated TSB were incubated until an OD600 of around 0.5 was reached. The bacterial suspensions were then diluted with MHB (2 × 10^5 CFU/mL) and added to the microplates containing the test compounds (50 μL to each well). The well plates were sealed with an adhesive membrane and after 18 h of incubation at 37 °C with shaking at 600 rpm, the wells were visually inspected for bacterial growth. MIC values reported are based on three technical replicates and defined as the lowest concentration of the compound that prevented visible growth of bacteria.

[2] = tested on: E. coli (MCR-1); format: cell-based, Escherichia coli; conditions: microbroth dilution per CLSI, MHB, 18 h at 37 °C, visual inspection, three technical replicates, E. coli 25922 carrying mcr-1
Description: as §1, §2

[3] = tested on: E. coli ATCC 25922; format: cell-based, Escherichia coli; conditions: for Antibacterial activity (MIC) E. coli ATCC 25922: microbroth dilution per CLSI, MHB, 18 h at 37 °C, visual inspection, three technical replicates; for MIC (µg/mL) against E. coli (ATCC 25922): (Supplement 2)
Description: as §1, §2

[4] = tested on: K. pneumoniae ATCC 13883; format: cell-based, Klebsiella pneumoniae; conditions: microbroth dilution per CLSI, MHB, 18 h at 37 °C, visual inspection, three technical replicates
Description: as §1, §2

[5] = tested on: P. aeruginosa PAO1; format: cell-based, Pseudomonas aeruginosa; conditions: microbroth dilution per CLSI, MHB, 18 h at 37 °C, visual inspection, three technical replicates
Description: as §1, §2

[6] = tested on: A. baumannii ATCC 17961; format: cell-based, Acinetobacter baumannii; conditions: microbroth dilution per CLSI, MHB, 18 h at 37 °C, visual inspection, three technical replicates
Description: as §1, §2

| SMILES | Antibacterial activity (MIC) S. aureus USA300 [1] [µg/mL] | Antibacterial activity (MIC) E. coli (MCR-1) [2] [µg/mL] | Antibacterial activity (MIC) E. coli ATCC 25922 [3] [µg/mL] | Antibacterial activity (MIC) K. pneumoniae ATCC 13883 [4] [µg/mL] | Antibacterial activity (MIC) P. aeruginosa PAO1 [5] [µg/mL] | Antibacterial activity (MIC) A. baumannii ATCC 17961 [6] [µg/mL] | MIC (µg/mL) against E. coli (ATCC 25922) [3] [µg/mL] |
| --- | --- | --- | --- | --- | --- | --- | --- |
| CCC(C)CCC(=O)N[C@H](CC(N)=O)C(=O)N[C@H](Cc1ccc(O)cc1)C(=O)N[C@H](Cc1c[nH]c2ccccc12)C(=O)N[C@H](CCCN)C(=O)N[C@@H](CCCN)C(=O)NCC(=O)N[C@H](CCCN)C(=O)N[C@@H](Cc1c[nH]c2ccccc12)C(=O)N[C@H](C(=O)N[C@H](C(=O)NCC(=O)N[C@@H](CO)C(=O)O)[C@@H](C)CC)[C@@H](C)O (stereo partly shown) [LB-OH (5)] ({Hexanoyl(4ξ-Me)}-[dN][dY][dW][dOrn][Orn]G[dOrn]WTIGS-OH) | >32 | >32 | >32 | >32 | 16 | >32 | – |
| CCC(C)CCC(=O)N[C@H](CC(N)=O)C(=O)N[C@H](Cc1ccc(O)cc1)C(=O)N[C@H](Cc1c[nH]c2ccccc12)C(=O)N[C@H](CCCN)C(=O)N[C@@H](CCCN)C(=O)NCC(=O)N[C@H](CCCN)C(=O)N[C@@H](Cc1c[nH]c2ccccc12)C(=O)N[C@@H](CC(C)C)C(=O)N[C@H](C(=O)NCC(N)=O)[C@@H](C)CC (stereo partly shown) [Δ12LB (Leu9)-NH2 (53)] ({Hexanoyl(4ξ-Me)}-[dN][dY][dW][dOrn][Orn]G[dOrn]WLIG-NH2) | >32 | 4 | 4 | 4 | 8 | 4 | 8 (≈ 5.47 µM) |
| CC(C)CCCCCC(=O)N[C@H](CO)C(=O)N[C@H](Cc1ccc(O)cc1)C(=O)N[C@H](Cc1c[nH]c2ccccc12)C(=O)N[C@H](CCCN)C(=O)N[C@@H](CCCN)C(=O)NCC(=O)N[C@H](CCCN)C(=O)N[C@@H](Cc1c[nH]c2ccccc12)C(N)=O [Δ9–13LL-NH2 (16)] ({Octanoyl(7-Me)}-[dS][dY][dW][dOrn][Orn]G[dOrn]W-NH2) | >32 | >32 | >32 | >32 | >32 | 32 | – |
| CCC(C)CCC(=O)N[C@H](CC(N)=O)C(=O)N[C@H](Cc1ccc(O)cc1)C(=O)N[C@H](Cc1c[nH]c2ccccc12)C(=O)N[C@H](CCCN)C(=O)N[C@@H](CCCN)C(=O)NCC(=O)N[C@H](CCCN)C(=O)N[C@@H](Cc1c[nH]c2ccccc12)C(=O)N[C@@H]1C(=O)N[C@@H]([C@@H](C)CC)C(=O)NCC(=O)N[C@@H](CO)C(=O)O[C@@H]1C (stereo partly shown) [Brev (1), brevicidine] ({Hexanoyl(4ξ-Me)}-[dN][dY][dW][dOrn][Orn]G[dOrn]WTIGS; ester 9-C) | >32 | 4 | 4 | 2 | 8 | 4 | – |
| CCC(C)CCC(=O)N[C@H](CC(N)=O)C(=O)N[C@H](Cc1ccc(O)cc1)C(=O)N[C@H](Cc1c[nH]c2ccccc12)C(=O)N[C@H](CCCN)C(=O)N[C@@H](CCCN)C(=O)NCC(=O)N[C@H](CCCN)C(=O)N[C@@H](Cc1c[nH]c2ccccc12)C(=O)N[C@@H](Cc1c[nH]c2ccccc12)C(=O)N[C@H](C(=O)NCC(N)=O)[C@@H](C)CC (stereo partly shown) [Δ12LB (Trp9)-NH2 (56)] ({Hexanoyl(4ξ-Me)}-[dN][dY][dW][dOrn][Orn]G[dOrn]WWIG-NH2) | 16 | 4 | 4 | 8 | 8 | 4 | 4 (≈ 2.61 µM) |
| CC[C@H](C)[C@H](NC(=O)[C@H](CC(N)=O)NC(=O)[C@H](Cc1c[nH]c2ccccc12)NC(=O)[C@@H](CCCN)NC(=O)CNC(=O)[C@H](CCCN)NC(=O)[C@@H](CCCN)NC(=O)[C@@H](Cc1c[nH]c2ccccc12)NC(=O)[C@@H](Cc1ccc(O)cc1)NC(=O)[C@@H](CO)NC(=O)CCCCCC(C)C)C(=O)N[C@@H](CC(N)=O)C(=O)NCC(=O)NCC(N)=O [LL(Asn9)-NH2 (47)] ({Octanoyl(7-Me)}-[dS][dY][dW][dOrn][Orn]G[dOrn]WNINGG-NH2) | >32 | 8 | 8 | 8 to 16 | 8 | 16 | 8 (≈ 4.89 µM) |
| CC[C@H](C)[C@H](NC(=O)[C@@H](NC(=O)[C@H](Cc1c[nH]c2ccccc12)NC(=O)[C@@H](CCCN)NC(=O)CNC(=O)[C@H](CCCN)NC(=O)[C@@H](CCCN)NC(=O)[C@@H](Cc1c[nH]c2ccccc12)NC(=O)[C@@H](Cc1ccc(O)cc1)NC(=O)[C@@H](CO)NC(=O)CCCCCC(C)C)[C@@H](C)O)C(=O)N[C@@H](CC(N)=O)C(=O)NCC(=O)NCC(=O)O [LL-OH (4)] ({Octanoyl(7-Me)}-[dS][dY][dW][dOrn][Orn]G[dOrn]WTINGG-OH) | >32 | 16 | 8 | 8 to 16 | 8 | 16 | – |
| CC[C@H](C)[C@H](NC(=O)[C@@H](NC(=O)[C@H](Cc1c[nH]c2ccccc12)NC(=O)[C@@H](CCCN)NC(=O)CNC(=O)[C@H](CCCN)NC(=O)[C@@H](CCCN)NC(=O)[C@@H](C)NC(=O)[C@@H](Cc1ccc(O)cc1)NC(=O)[C@@H](CO)NC(=O)CCCCCC(C)C)[C@@H](C)O)C(=O)N[C@@H](CC(N)=O)C(=O)NCC(=O)NCC(N)=O [LL(D-Ala3)-NH2 (31)] ({Octanoyl(7-Me)}-[dS][dY][dA][dOrn][Orn]G[dOrn]WTINGG-NH2) | >32 | >32 | >32 | >32 | >32 | >32 | – |
| CC[C@H](C)[C@H](NC(=O)[C@H](CCC(N)=O)NC(=O)[C@H](Cc1c[nH]c2ccccc12)NC(=O)[C@@H](CCCN)NC(=O)CNC(=O)[C@H](CCCN)NC(=O)[C@@H](CCCN)NC(=O)[C@@H](Cc1c[nH]c2ccccc12)NC(=O)[C@@H](Cc1ccc(O)cc1)NC(=O)[C@@H](CO)NC(=O)CCCCCC(C)C)C(=O)N[C@@H](CC(N)=O)C(=O)NCC(=O)NCC(N)=O [LL(Gln9)-NH2 (48)] ({Octanoyl(7-Me)}-[dS][dY][dW][dOrn][Orn]G[dOrn]WQINGG-NH2) | >32 | 8 | 4 | 4 | 4 | 8 | 4 (≈ 2.43 µM) |
| CCC(C)CCC(=O)N[C@H](CC(N)=O)C(=O)N[C@H](Cc1ccc(O)cc1)C(=O)N[C@H](Cc1c[nH]c2ccccc12)C(=O)N[C@H](CCCN)C(=O)N[C@@H](CCCN)C(=O)NCC(=O)N[C@H](CCCN)C(=O)N[C@@H](Cc1c[nH]c2ccccc12)C(=O)N[C@H](C(=O)N[C@H](C(=O)NCC(N)=O)[C@@H](C)CC)[C@@H](C)O (stereo partly shown) [Δ12LB-NH2 (9)] ({Hexanoyl(4ξ-Me)}-[dN][dY][dW][dOrn][Orn]G[dOrn]WTIG-NH2) | >32 | 16 | 8 | 8 | 4 | 8 | – |
